The record followed here is patent US7598242B2 (priority 2001, dated 2009).

For the assay, the target named is T1, purified catalytic domain of recombinant human TACE (rhTACEc) (Homo sapiens, UniProt P78536, N452Q/S266A).
T1 construct: Residue 215 to 477 with two mutation (S266A and N452Q) and a 6×His tail; 6xHis (C); made in house; host or cells: baculovirus/Hi5 insect cells
T1 sequence (P78536 215-477 S266A/N452Q): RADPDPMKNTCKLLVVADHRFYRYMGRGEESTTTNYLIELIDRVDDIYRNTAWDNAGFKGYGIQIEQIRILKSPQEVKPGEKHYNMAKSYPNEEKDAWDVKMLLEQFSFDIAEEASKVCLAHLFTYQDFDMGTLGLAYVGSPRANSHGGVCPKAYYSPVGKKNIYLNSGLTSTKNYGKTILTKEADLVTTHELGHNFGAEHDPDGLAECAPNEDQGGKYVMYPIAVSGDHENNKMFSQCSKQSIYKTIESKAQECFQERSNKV
As to the kind of experiment: biochemical.
Turning to `Cc1cc(COc2ccc(C[C@]3(C(N)=O)C[C@@H]3C(=O)NO)cc2F)c2ccccc2n1` [CV], the Ki (commonly a dissociation constant, usually derived from enzyme kinetics or from competition with a known ligand) is below 20 nM.
As to `CCc1cc(COc2ccc(C[C@]3(C(=O)N4CC[C@@H](N)C4)C[C@@H]3C(=O)NO)cc2F)c2ccccc2n1` [JS], the Ki was below 20 nM.
Under `NC(=O)[C@@]1(Cc2ccc(OCc3cc(-c4ccccn4)nc4ccccc34)c(F)c2)C[C@@H]1C(=O)NO` [CS] stands below 20 nM; under `Cc1cc(COc2ccc(C[C@]3(C(N)=O)C[C@@H]3C(=O)NO)cc2Cl)c2ccccc2n1` [FN], below 20 nM.
Take `N[C@@H]1CCN(C(=O)[C@@]2(Cc3ccc(OCc4cc(-c5ccccc5)nc5ccccc45)cc3)C[C@@H]2C(=O)NO)C1` [KZ]: the Ki is below 20 nM.
In the case of `CCCc1cc(COc2ccc(C[C@]3(C(N)=O)C[C@@H]3C(=O)NO)cc2F)c2ccccc2n1` [CR] it was below 20 nM; in that of `CN(C)C1CCN(C(=O)[C@@]2(Cc3ccc(OCc4cc(-c5ccncc5)nc5ccccc45)c(F)c3)C[C@@H]2C(=O)NO)C1` (some centres unmarked) [JV], below 20 nM.
In the case of `Cc1cc(COc2ccc(C[C@]3(C#N)C[C@@H]3C(=O)NO)cc2)c2ccccc2n1` [FG] it was below 20 nM.
In the case of `CCc1cc(COc2ccc(C[C@]3(C(N)=O)C[C@@H]3C(=O)NO)cc2F)c2ccccc2n1` [CO] it was below 20 nM.
Take `CCc1cc(COc2ccc(C[C@]3(C(=O)N4CC[C@H](N(C)C)C4)C[C@@H]3C(=O)NO)cc2)c2ccccc2n1` [JF]: the Ki is below 20 nM.
Consider `NC(=O)[C@@]1(Cc2ccc(OCc3cc(C4CC4)nc4ccccc34)c(F)c2)C[C@@H]1C(=O)NO` [CU], for which the Ki was below 20 nM.
Under `CN(C)C(=O)[C@@]1(Cc2ccc(OCc3cc(-c4ccncc4)nc4ccccc34)c(F)c2)C[C@@H]1C(=O)NO` [CZ] stands below 20 nM.
Under `COC(=O)[C@@]1(Cc2ccc(OCc3cc(N4CCN(C)CC4)nc4ccccc34)c(F)c2)C[C@@H]1C(=O)NO` [GA] stands below 20 nM; under `CN(C)CCNC(=O)[C@@]1(Cc2ccc(OCc3cc(C(F)(F)F)nc4ccccc34)cc2)C[C@@H]1C(=O)NO` [BP], below 20 nM; under `CCc1cc(COc2ccc(C[C@]3(C(=O)N4CC[C@H](O)C4)C[C@@H]3C(=O)NO)cc2F)c2ccccc2n1` [JR], below 20 nM.
Turning to `NC(=O)[C@@]1(Cc2ccc(OCc3cc(-c4cccnc4)nc4ccccc34)cc2)C[C@@H]1C(=O)NO` [DA], the Ki is below 20 nM.
Under `CCOC(=O)[C@@]1(Cc2ccc(OCc3cc(-c4cccnc4)nc4ccc(C)cc34)c(F)c2)C[C@@H]1C(=O)NO` [GV] stands below 20 nM; under `CCc1cc(COc2ccc(C[C@]3(C(=O)N4CC[C@H](N(C)C)C4)C[C@@H]3C(=O)NO)cc2F)c2ccccc2n1` [JT], below 20 nM.
Under `Cc1cc(COc2cccc([C@@]3(C(=O)OC(C)C)C[C@H]3C(=O)NO)c2)c2ccccc2n1` [KM] stands below 20 nM; under `CN(C)c1cc(COc2ccc(C[C@]3(C(N)=O)C[C@@H]3C(=O)NO)cc2F)c2ccccc2n1` [CN], below 20 nM.
On to `CCc1cc(COc2ccc(C[C@]3(C(=O)N4CC[C@H](O)C4)C[C@@H]3C(=O)NO)cc2)c2ccccc2n1` [JC], for which the Ki is below 20 nM.
`O=C1CN(C(=O)[C@@]2(Cc3ccc(OCc4cc(-c5ccccc5)nc5ccccc45)cc3)C[C@@H]2C(=O)NO)CCN1` [BQ]: the Ki was below 20 nM.
Under `O=C(NO)[C@H]1C[C@]1(Cc1ccc(OCc2cc(-c3ccccc3)nc3ccccc23)cc1)C(=O)N1CC[C@H](NC(=O)C(F)(F)F)C1` [JE] stands below 20 nM; under `CNc1cc(COc2ccc(C[C@]3(C(=O)OC)C[C@@H]3C(=O)NO)cc2F)c2ccccc2n1` [GB], below 20 nM.
In the case of `COC(=O)[C@@]1(Cc2ccc(OCc3cc(N4CCOCC4)nc4ccccc34)c(F)c2)C[C@@H]1C(=O)NO` [FZ] it was below 20 nM; in that of `Cc1cc(COc2ccc(C[C@]3(C(N)=O)C[C@@H]3C(=O)NO)cc2Br)c2ccccc2n1` [FQ], below 20 nM.
Under `CN(C)CCN(C)C(=O)[C@@]1(Cc2ccc(OCc3cc(-c4ccccc4)nc4ccccc34)cc2)C[C@@H]1C(=O)NO` [JD] stands below 20 nM.
Consider `COC(=O)[C@@]1(Cc2ccc(OCc3cc(N4CCCC4)nc4ccccc34)c(F)c2)C[C@@H]1C(=O)NO` [FY], for which the Ki was below 20 nM.
In the case of `NC(=O)[C@@]1(Cc2ccc(OCc3cc(-c4ccc(Cl)cc4)nc4ccccc34)c(F)c2)C[C@@H]1C(=O)NO` [CY] it was below 20 nM; in that of `Cc1cc(COc2ccc(C[C@]3(C(=O)N(C)C)C[C@@H]3C(=O)NO)cc2)c2ccccc2n1` [BL], below 20 nM.
For the compound `COC(=O)[C@@]1(Cc2ccc(OCc3cc(-c4ccncc4)nc4ccccc34)c(F)c2)C[C@@H]1C(=O)NO` [LI], the Ki is below 20 nM.
With `NC(=O)[C@@]1(Cc2ccc(OCc3cc(N4CCCCC4)nc4ccccc34)c(F)c2)C[C@@H]1C(=O)NO` [LM], the Ki was below 20 nM.
Under `CN1CCN(c2cc(COc3ccc(C[C@]4(C(N)=O)C[C@@H]4C(=O)NO)cc3F)c3ccccc3n2)CC1` [FX] stands below 20 nM; under `Cc1cc(COc2ccc(C[C@]3(C(=O)N4CCC[C@H]4CO)C[C@@H]3C(=O)NO)cc2)c2ccccc2n1` [JG], below 20 nM.
Under `CCc1cc(COc2ccc(C[C@]3(C(=O)OC)C[C@@H]3C(=O)NO)cc2F)c2ccccc2n1` [DB] stands below 20 nM; under `NC(=O)[C@@]1(Cc2ccc(OCc3cc(-c4ccccc4Cl)nc4ccccc34)c(F)c2)C[C@@H]1C(=O)NO` [CW], below 20 nM.
In the case of `CCc1cc(COc2ccc(C[C@]3(C(=O)N4CC[C@@H](NC(=O)C(F)(F)F)C4)C[C@@H]3C(=O)NO)cc2F)c2ccccc2n1` [JU] it was below 20 nM; in that of `CCOC(=O)[C@@]1(Cc2ccc(OCc3ccnc(N4CCOCC4)c3)cc2)C[C@@H]1C(=O)NO` [LH], below 20 nM.
Take `CN(C)C(=O)[C@@]1(Cc2ccc(OCc3cc(C(F)(F)F)nc4ccccc34)cc2)C[C@@H]1C(=O)NO` [BO]: the Ki was below 20 nM.
For the compound `Cc1cc(COc2ccc(C[C@]3(C(=O)N(C)C)C[C@@H]3C(=O)NO)cc2F)c2ccccc2n1` [JO], the Ki is below 20 nM.
For the compound `Cc1cc(COc2ccc(C[C@]3(C(=O)NCc4ccccc4)C[C@@H]3C(=O)NO)cc2)c2ccccc2n1` [O], the Ki is below 20 nM.
Under `Cc1cc(COc2cccc([C@@]3(C(=O)NC4CCCCC4)C[C@H]3C(=O)NO)c2)c2ccccc2n1` [JY] stands below 20 nM.
In the case of `CC1CCCN1c1cc(COc2ccc(C[C@]3(C(N)=O)C[C@@H]3C(=O)NO)cc2F)c2ccccc2n1` (some centres unmarked) [FV] it was below 20 nM.
Under `Cc1cc(COc2ccc(C[C@]3(C(=O)NCc4cccnc4)C[C@@H]3C(=O)NO)cc2)c2ccccc2n1` [P] stands below 20 nM.
